From PubChem BioAssay (NCI)
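48-hour exposure; five concentrations; linearly interpolated endpoints. GI50 is the concentration that inhibits growth by half. TGI: total growth inhibition.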

What was measured:
Assay in all cases: inhibition of tumour cell growth, NCI panel, 48 h
[1] = system: ACHN renal
[2] = system: HT29 colon
[3] = system: T-47D breast
[4] = system: OVCAR-5 ovarian
[5] = system: K-562 leukemia
[6] = system: HOP-92 NSCLC
[7] = system: BT-549 breast
[8] = system: NCI-H460 lung
[9] = system: RPMI-8226 leukemia
[10] = system: NCI-H522 lung
[11] = system: SF-539 CNS
[12] = system: SF-295 CNS
[13] = system: NCI-H226 lung
[14] = system: SN12C renal
[15] = system: HCC-2998 colon
[16] = system: SF-268 CNS
[17] = system: A498 renal
[18] = system: SK-MEL-5 melanoma
[19] = system: NCI/ADR-RES ovarian
[20] = system: SNB-19 CNS
[21] = system: CCRF-CEM leukemia
[22] = system: OVCAR-8 ovarian
[23] = system: LOX IMVI melanoma
[24] = system: UACC-62 melanoma
[25] = system: KM12 colon
[26] = system: A549 NSCLC
[27] = system: TK-10 renal
[28] = system: OVCAR-4 ovarian
[29] = system: DU-145 prostate
[30] = system: U251 CNS
[31] = system: COLO 205 colon
[32] = system: OVCAR-3 ovarian
[33] = system: NCI-H23 lung
[34] = system: HCT-15 colon
[35] = system: HOP-62 NSCLC
[36] = system: MALME-3M melanoma
[37] = system: UACC-257 melanoma
[38] = system: HCT-116 colon
[39] = system: SK-OV-3 ovarian
[40] = system: M14 melanoma
[41] = system: RXF 393 renal
[42] = system: HS 578T breast
[43] = system: SNB-75 CNS
[44] = system: PC-3 prostate
[45] = system: SK-MEL-28 melanoma
[46] = system: CAKI-1 renal
[47] = system: MCF7 breast
[48] = system: MOLT-4 leukemia
[49] = system: 786-0 renal
[50] = system: HL-60(TB) leukemia
[51] = system: MDA-MB-435
[52] = system: UO-31 renal
[53] = system: EKVX NSCLC
[54] = system: IGROV1 ovarian
[55] = system: MDA-MB-231 breast
[56] = system: SW-620 colon

## CNC(=O)c1cncc(/C=C/c2c(Cl)cccc2Cl)c1
[1]
  GI50: > 23.2 µM
  TGI: > 25 µM
[2]
  GI50: 15.1 µM
  TGI: > 25 µM
[3]
  GI50: > 18.1 µM
  TGI: > 25 µM
[4]
  GI50: > 25 µM
  TGI: > 25 µM
[5]
  GI50: 8.14 µM
  TGI: > 25 µM
[6]
  GI50: 2.31 µM
  TGI: > 25 µM
[7]
  GI50: > 25 µM
  TGI: > 25 µM
[8]
  GI50: > 25 µM
  TGI: > 25 µM
[9]
  GI50: > 25 µM
  TGI: > 25 µM
[10]
  GI50: 8.38 µM
  TGI: > 25 µM
[11]
  GI50: 9.43 µM
  TGI: > 25 µM
[12]
  GI50: > 12.8 µM
  TGI: > 25 µM
[13]
  GI50: > 24.1 µM
  TGI: > 25 µM
[14]
  GI50: > 21 µM
  TGI: > 25 µM
[15]
  GI50: > 25 µM
  TGI: > 25 µM
[16]
  GI50: 22.7 µM
  TGI: > 25 µM
[17]
  GI50: 7.44 µM
  TGI: > 25 µM
[18]
  GI50: 14.5 µM
  TGI: > 25 µM
[19]
  GI50: > 21.2 µM
  TGI: > 25 µM
[20]
  GI50: > 22.4 µM
  TGI: > 25 µM
[21]
  GI50: > 25 µM
  TGI: > 25 µM
[22]
  GI50: > 25 µM
  TGI: > 25 µM
[23]
  GI50: > 19.6 µM
  TGI: > 25 µM
[24]
  GI50: > 19.8 µM
  TGI: > 25 µM
[25]
  GI50: > 22.4 µM
  TGI: > 25 µM
[26]
  GI50: > 25 µM
  TGI: > 25 µM
[27]
  GI50: 12.9 µM
  TGI: > 25 µM
[28]
  GI50: 21.9 µM
  TGI: > 25 µM
[29]
  GI50: > 25 µM
  TGI: > 25 µM
[30]
  GI50: > 25 µM
  TGI: > 25 µM
[31]
  GI50: > 25 µM
  TGI: > 25 µM
[32]
  GI50: 20.9 µM
  TGI: > 25 µM
[33]
  GI50: > 25 µM
  TGI: > 25 µM
[34]
  GI50: > 22.4 µM
  TGI: > 25 µM
[35]
  GI50: > 25 µM
  TGI: > 25 µM
[36]
  GI50: 12.9 µM
  TGI: > 25 µM
[37]
  GI50: 24.7 µM
  TGI: > 25 µM
[38]
  GI50: > 25 µM
  TGI: > 25 µM
[39]
  GI50: > 25 µM
  TGI: > 25 µM
[40]
  GI50: > 23.4 µM
  TGI: > 25 µM
[41]
  GI50: 8.89 µM
  TGI: > 25 µM
[42]
  GI50: 7.17 µM
  TGI: > 21.6 µM
[43]
  GI50: 2.89 µM
  TGI: > 16.1 µM
[44]
  GI50: > 21.6 µM
  TGI: > 25 µM
[45]
  GI50: > 25 µM
  TGI: > 25 µM
[46]
  GI50: 13.6 µM
  TGI: > 25 µM
[47]
  GI50: > 25 µM
  TGI: > 25 µM
[48]
  GI50: > 21.9 µM
  TGI: > 25 µM
[49]
  GI50: > 25 µM
  TGI: > 25 µM
[50]
  GI50: > 25 µM
  TGI: > 25 µM
[51]
  GI50: 6.88 µM
  TGI: > 25 µM
[52]
  GI50: 6.69 µM
  TGI: > 25 µM
[53]
  GI50: > 25 µM
  TGI: > 25 µM
[54]
  GI50: > 17.9 µM
  TGI: > 25 µM
[55]
  GI50: > 15.8 µM
  TGI: > 25 µM
[56]
  GI50: > 25 µM
  TGI: > 25 µM
